US12673022B2, “Drug delivery system using solution” (Kyoto University, priority 2018, dated 2026)

Test system: EGFP reporter cells (C2C12 cells)
Experiment: EGFP-SSA assay: uptake of Cas9 protein/gRNA complex into cells (EGFP positive rate)
Assay type: cell-based, mouse
Details: Example 1; compound 250.0 mM; reaction solution 1 (550 mM sodium chloride, 1 mM HEPES, Cas9 protein/gRNA), 30 minutes
From the text: EGFP-SSA assay: an abbreviation of EGFP-single strand annealing assay. The reporter cassette shown in FIG. 1 is inserted in EGFP reporter cells. In the middle of the EGFP sequence of the cassette, MmDMD-Ex51 sequence is inserted. Since the presence of MmDMD-Ex51 sequence, by which EGFP ORF is divided, EGFP protein is not usually translated. However, when target sequence of MmDMD-Ex51 is cleaved by Cas9 protein/gRNA complex, the upstream region (EG part) and the downstream region (FP part) of EGFP ORF are annealed via a homology area into a single strand, with the result that a full-length EGFP ORF emerges to produce EGFP protein. Based on this principle, the ratio of the number of cells producing EGFP is checked by the EGFP-SSA assay. In this manner, the amount of Cas9 protein/gRNA complex delivered to cells can be predicted.
(§1) Cas9 protein (0.4 μg), tracrRNA (34.18 ng), MmDmd Ex51 crRNA (29.48 ng), a 1 M HEPES buffer (0.05 μL) and a 5 M aqueous sodium chloride solution (5.5 μL) were mixed and diluted with UltraPure DNase/RNase-Free Distilled Water up to a liquid volume of 37.5 μL so as to obtain final concentrations: 8 ng/μL Cas9 protein, 0.68 ng/μL tracrRNA, 0.59 ng/μL MmDmd Ex51 crRNA, 1 mM HEPES, 550 mM sodium chloride, and 250 mM compound. To this solution, a 1000 mM compound solution (12.5 μL) was added and the solution mixture was incubated at normal temperature for 15 minutes.
as §1, with “buffer (2.5” for “buffer (0.05”, “solution (4.85” for “solution (5.5”, “crRNA, 50” for “crRNA, 1”, “HEPES, 485” for “HEPES, 550”, “minutes. Note that, in the cases where the final concentrations of the compound are 0.69 mM, 25 mM, 100 mM, 125 mM, 160 mM, 200 mM and 500 mM, the compound stock solution was diluted with UltraPure DNase/RNase-Free Distilled Water up to concentrations of 2.76 mM, 100 mM, 400 mM, 500 mM, 640 mM, 800 mM and 2000 mM, respectively, and then, added. […]” for “minutes.”
Cas9 protein (2.0 μg), tracrRNA (170.9 ng), MmDmd Ex51 crRNA (147.4 ng), a 1 M HEPES buffer (12.5 μL), a 5 M aqueous sodium chloride solution (18.35 μL) and a 1 M aqueous GABA solution (62.5 μL) were mixed, diluted with UltraPure DNase/RNase-Free Distilled Water up to a liquid volume of 250 μL so as to obtain final concentrations: 8 ng/μL Cas9 protein, 0.68 ng/μL tracrRNA, 0.59 ng/μL MmDmd Ex51 crRNA, 50 mM HEPES, 250 mM GABA and 367 mM sodium chloride, and incubated at normal temperature for 15 minutes. Note that the addition amount of the 5 M aqueous sodium chloride solution was changed to 24.25 μL in the case of 485 mM sodium chloride and the addition amount was changed to 27.5 μL in the case of 550 mM sodium chloride, respectively.

NC(=O)N[C@@H](CC(=O)O)C(=O)O [N-Carbamyl-L-aspartic acid]
Compound activity: EGFP positive rate (%): 8.53%
